Source: patent US12029739B2, “SHP2 inhibitor and use thereof” (KANAPH THERAPEUTICS INC., priority 2021, dated 2024)
Read-outs that look alike come from different tables or passages of the source.

Experiments:
[1] = biological target: T1, SHP2 (full length) (Homo sapiens, UniProt Q06124); assay: Phosphatase assay (PTPase assay) with DiFMUP substrate; assay type: biochemical; settings: SHP2 activated with SHP2 activating peptide, DiFMUP 80 μM, 2 hours, fluorescence
T1 construct: SHP2 (full length, diluted to 100 pM final concentration in reaction buffer, BPS bioscience, US); purchased BPS bioscience, US
T1 sequence (Q06124 1-593): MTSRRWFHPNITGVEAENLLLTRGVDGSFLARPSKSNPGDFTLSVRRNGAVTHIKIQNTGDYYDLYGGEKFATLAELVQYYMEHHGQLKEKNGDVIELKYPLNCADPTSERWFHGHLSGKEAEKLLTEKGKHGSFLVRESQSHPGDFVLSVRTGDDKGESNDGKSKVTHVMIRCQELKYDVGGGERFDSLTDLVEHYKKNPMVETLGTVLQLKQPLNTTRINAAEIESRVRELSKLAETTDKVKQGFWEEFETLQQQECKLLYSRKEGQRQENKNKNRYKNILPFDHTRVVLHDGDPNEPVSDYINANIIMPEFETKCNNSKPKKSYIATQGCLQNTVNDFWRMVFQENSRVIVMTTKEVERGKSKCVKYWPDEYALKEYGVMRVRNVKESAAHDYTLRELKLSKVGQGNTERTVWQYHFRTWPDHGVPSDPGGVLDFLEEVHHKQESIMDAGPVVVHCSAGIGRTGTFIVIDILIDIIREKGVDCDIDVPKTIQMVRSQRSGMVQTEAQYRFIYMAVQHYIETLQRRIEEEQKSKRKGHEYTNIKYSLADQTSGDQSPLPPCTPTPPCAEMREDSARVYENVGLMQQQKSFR

[2] = tested on: phospho-ERK in MIA PaCa2 or H358 cells; assay: Phospho-ERK assay (AlphaLisa); assay type: cell-based
[3] = 1.5 h, MIA PaCa2 or H358 cells, compound incubated 1.5 hours, read-out: IC50 (p-ERK)
[4] = 1.5 h, read-out: IC50 (p-ERK, nM)
[5] = MIA PaCa2 or H358 cells, compound incubated 1.5 hours, read-out: IC50 (p-ERK)

Structure (SMILES) | IC50 ([1]; read-out: IC50 (PTPase aS say)) [nM] | IC50 [2, 3] [nM] | IC50 ([1]; IC50 (PTPase aS say, nM)) [nM] | IC50 [2, 4] [nM] | IC50 [2, 5] [nM]
C[C@@H]1OCC2(CCN(c3cnc(Sc4ccc5ncn(CC(F)(F)F)c(=O)c5c4Cl)cn3)CC2)[C@@H]1N [Example 75, 6-((5-((3S,4S)-4-amino-3-methyl-2-oxa-8-azaspiro[4.5]decan-8-yl)pyrazin-2-yl)thio)-5-chloro-3-(2,2,2-trifluoroethyl)quinazolin-4(3H)-one] | 3 to 100 | 45 to 1500 |  |  | 
CC1(CN)CCN(c2cnc(Sc3ccc4ncn(Cc5ccc(S(=O)(=O)F)cc5)c(=O)c4c3Cl)cn2)CC1 [Example 17, 4-((6-((5-(4-(aminomethyl)-4-methylpiperidin-1-yl)pyrazin-2-yl)thio)-5-chloro-4-oxoquinazolin-3(4H)-yl)methyl)benzenesulfonyl fluoride] |  |  | 3 to 100 | 45 to 1500 | 
C[C@@H]1OCC2(CCN(c3cnc(Sc4ccc5ncn(CC(O)CO)c(=O)c5c4Cl)cn3)CC2)[C@@H]1N (stereo partly drawn) [Example 122, 6-((5-((3S,4S)-4-amino-3-methyl-2-oxa-8-azaspiro[4,5]decan-8-yl)pyrazin-2-yl)thio)-5-chloro-3-(2,3-dihydroxypropyl)quinazolin-4(3H)-one] | < 3 |  |  |  | < 45
Cn1cnc2ccc(Sc3cnc(N4CCC(C)(CN)CC4)cn3)c(Cl)c2c1=O [Example 15, 6-((5-(4-(aminomethyl)-4-methylpiperidin-1-yl)pyrazin-2-yl)thio)-5-chloro-3-methylquinazolin-4(3H)-one] | 3 to 100 | 45 to 1500 |  |  | 
COCCn1cnc2ccc(Sc3ncc(N4CCC5(CC4)Cc4ncccc4[C@H]5N)nc3N)c(Cl)c2c1=O [Example 134] | 3 to 100 | 45 to 1500 |  |  | 
COC(=O)c1cccc(Sc2cnc(N3CCC(C)(N)CC3)cn2)c1Cl [Example 1, methyl 3-((5-(4-amino-4-methylpiperidin-1-yl)pyrazin-2-yl)thio)-2-chlorobenzoate] | 3 to 100 | 45 to 1500 |  |  | 
Cn1c(N2CCN(C[C@H](N)Cc3ccncc3)CC2)nc(N)c(Sc2cccc(Cl)c2Cl)c1=O [Example 186, (R)-6-amino-2-(4-(2-amino-3-(pyridin-4-yl)propyl)piperazin-1-yl)-5-((2,3-dichlorophenyl)thio)-3-methylpyrimidin-4(3H)-one] | > 100 | 45 to 1500 |  |  | 
COCCn1cnc2ccc(Sc3cnc(N4CCC5(CC4)CO[C@@H](C)[C@H]5N)n4ccnc34)c(Cl)c2c1=O [Example 182, 6-((5-((3S,4S)-4-amino-3-methyl-2-oxa-8-azaspiro[4.5]decan-8-yl)imidazo[1,2-c]pyrimidin-8-yl)thio)-5-chloro-3-(2-methoxyethyl)quinazolin-4(3H)-one] | 3 to 100 |  |  |  | 45 to 1500
CC(C)(O)Cn1cnc2ccc(Sc3cnc(N4CCC5(CC4)Cc4scnc4[C@H]5N)cn3)c(Cl)c2c1=O [Example 160, 6-[5-[(4S)-4-amino[4,6-dihydrocyclopenta[d]thiazole-5,4′-piperidin]-1′-yl]pyrazin-2-yl]sulfanyl-5-chloro-3-(2-hydroxy-2-methyl-propyl)quinazolin-4-one] | < 3 | < 45 |  |  | 
C[C@@H]1OCC2(CCN(c3cnc(Sc4ccc5nc(Cc6cccnc6)[nH]c5c4Cl)cn3)CC2)[C@@H]1N [Example 137, (3S,4S)-8-(5-((7-chloro-2-(pyridin-3-ylmethyl)-1H-benzo[d]imidazol-6-yl)thio)pyrazin-2-yl)-3-methyl-2-oxa-8-azaspiro[4.5]decan-4-amine] | 3 to 100 | 45 to 1500 |  |  | 
Cn1c(N2CCC(C)(N)CC2)nc(N)c(Sc2ccc3ncn(-c4ccccc4)c(=O)c3c2Cl)c1=O [Example 30, 6-((4-amino-2-(4-amino-4-methylpiperidin-1-yl)-1-methyl-6-oxo-1,6-dihydropyrimidin-5-yl)thio)-5-chloro-3-phenylquinazolin-4(3H)-one] | > 100 | > 1500 |  |  | 
Cc1ccc(Cn2cnc3ccc(Sc4cnc(N5CCC6(CC5)CO[C@@H](C)[C@H]6N)cn4)c(Cl)c3c2=O)c(F)c1 [Example 69, 6-((5-((3S,4S)-4-amino-3-methyl-2-oxa-8-azaspiro[4.5]decan-8-yl)pyrazin-2-yl)thio)-5-chloro-3-(2-fluoro-4-methylbenzyl)quinazolin-4(3H)-one] | < 3 | < 45 |  |  | 
C[C@@H]1OCC2(CCN(c3cnc(Sc4cccc(S(N)(=O)=O)c4Cl)c(N)n3)CC2)[C@@H]1N [Example 12, 3-((3-amino-5-((3S,4S)-4-amino-3-methyl-2-oxa-8-azaspiro[4.5]decan-8-yl)pyrazin-2-yl)thio)-2-chlorobenzenesulfonamide] | 3 to 100 |  |  |  | 45 to 1500
C[C@@H]1OCC2(CCN(c3cnc(Sc4ccc5ncn(CC6CCCN6C)c(=O)c5c4Cl)cn3)CC2)[C@@H]1N (stereo partly drawn) [Example 74, 6-((5-((3S,4S)-4-amino-3-methyl-2-oxa-8-azaspiro[4.5]decan-8-yl)pyrazin-2-yl)thio)-5-chloro-3-((l-methylpyrrolidin-2-yl)methyl)quinazolin-4(3H)-one] | 3 to 100 | 45 to 1500 |  |  | 
Cn1c(N2CCN(CCCN)CC2)nc(N)c(Sc2cccc(Cl)c2Cl)c1=O [Example 199, 6-amino-2-(4-(3-aminopropyl)piperazin-1-yl)-5-((2,3-dichlorophenyl)thio)-3-methylpyrimidin-4(3H)-one] | > 100 | > 1500 |  |  | 
COCCn1cnc2ccc(Sc3cnc(N4CCC5(CC4)Cc4scnc4[C@@H]5N)cn3)c(Cl)c2c1=O [Example 150, 6-[5-[(4R)-4-aminospiro[4,6-dihydrocyclopenta[d]thiazole-5,4′-piperidin]-1′-yl]pyrazin-2-yl]sulfanyl-5-chloro-3-(2-methoxyethyl)quinazolin-4-one] | < 3 | 45 to 1500 |  |  | 
COCCn1cnc2ccc(Sc3ncc(N4CCC5(CC4)CO[C@@H](C)[C@H]5N)nc3N)c(Cl)c2c1=O [Example 143, 6-((3-amino-5-((3S,4S)-4-amino-3-methyl-2-oxa-8-azaspiro[4.5]decan 8-yl)pyrazin-2-yl)thio)-5-chloro-3-(2-methoxyethyl)quinazolin-4(3H)-one] | < 3 | < 45 |  |  | 
COCCn1cnc2ccc(Sc3cnc(N4CCC5(CC4)Cc4scnc4[C@H]5N)c(C(N)=O)n3)c(Cl)c2c1=O [Example 172, (S)-3-(4-amino-4,6-dihydrospiro[cyclopenta[d]thiazole-5,4′-piperidin]-1′-yl)-6-((5-chloro-3-(2-methoxyethyl)-4-oxo-3,4-dihydroquinazolin-6-yl)thio)pyrazine-2-carboxamide] | < 3 | < 45 |  |  | 
COCCn1cnc2ccc(Sc3cnc(N4CCC5(CC4)Cc4ncccc4[C@H]5N)cn3)c(Cl)c2c1=O [Example 108] | 3 to 100 | 45 to 1500 |  |  | 
C[C@@H]1OCC2(CCN(c3cnc(Sc4ccc5ncn(CC(=O)N6CCCCC6)c(=O)c5c4Cl)cn3)CC2)[C@@H]1N [Example 95, 6-((5-((3S,4S)-4-amino-3-methyl-2-oxa-8-azaspiro[4.5]decan-8-yl)pyrazin-2-yl)thio)-5-chloro-3-(2-oxo-(2-piperidin-1-yl]ethyl)quinazolin-4(3H)-one] | < 3 | 45 to 1500 |  |  | 
N[C@@H]1c2cccnc2CC12CCN(c1cnc(Sc3ccc4ncn(Cc5ccoc5)c(=O)c4c3Cl)cn1)CC2 [Example 138] | < 3 | < 45 |  |  | 
C[C@@H]1OCC2(CCN(c3cnc(Sc4ccc5ncn(CN6CCOCC6)c(=O)c5c4Cl)cn3)CC2)[C@@H]1N [Example 78, 6-((5-((3S,4S)-4-amino-3-methyl-2-oxa-8-azaspiro[4.5]decan-8-yl)pyrazin-2-yl)thio)-5-chloro-3-(morpholinomethyl)quinazolin-4(3H)-one] | < 3 | < 45 |  |  | 
C[C@@H]1OCC2(CCN(c3cnc(Sc4ccc5c(=O)n(Cc6ccccc6)cnc5c4Cl)cn3)CC2)[C@@H]1N [Example 132] | < 3 | < 45 |  |  | 
C[C@@H]1OCC2(CCN(c3cnc(Sc4ccc5ncn(Cc6ccc7cc[nH]c7n6)c(=O)c5c4Cl)cn3)CC2)[C@@H]1N [Example 42, 3-((1H-pyrrolo[2,3-b]pyridin-6-yl)methyl)-6-((5-((3S,4S)-4-amino-3-methyl-2-oxa-8-azaspiro[4.5]decan-8-yl)pyrazin-2-yl)thio)-5-chloroquinazolin-4(3H)-one] | < 3 | < 45 |  |  | 
CC1(N)CCN(c2cnc(Sc3cccc(S(=O)(=O)F)c3Cl)cn2)CC1 [Example 7, 3-((5-(4-amino-4-methylpiperidin-1-yl)pyrazin-2-yl)thio)-2-chlorobenzenesulfonyl fluoride] |  |  | 3 to 100 | 45 to 1500 | 
C[C@@H]1OCC2(CCN(c3cnc(Sc4ccc5c(nc(OC6CCOC6)n5C)c4Cl)cn3)CC2)[C@@H]1N (stereo partly shown) [Example 130] | < 3 | < 45 |  |  | 
